The values that follow come from the CATMoS acute toxicity set (Mansouri et al. 2021).

The nature of the data set: GHS categories as the set defines them, by LD50: 1 up to 5, 2 up to 50, 3 up to 300, 4 up to 2000, 5 above 2000 mg/kg. The conditions noted are these: rat; in vivo; po. From the text:
[…]The data set underlying the modeling effort for this project was initially compiled by NICEATM and U.S. EPA’s CCTE. Briefly, LD50 data were collected from rat acute oral systemic toxicity tests, including limit tests, ranges/confidence intervals, and discrete LD50 values. The full data set included 21,200 LD50 entries for 15,688 substances. […] Data were reviewed to ensure that LD50 values with obvious errors in the extracted data such as unit conversion errors (e.g., comma and decimal separator misplacements) were either fixed or removed. After this review, 16,209 LD50 values remained. Many of the chemicals represented had multiple LD50 entries, requiring that a single representative value per Chemical Abstracts Service Registry Number (CASRN) identifier be defined to facilitate modeling efforts. Based on ATWG feedback and to define the representative LD50 as a protective value while accounting for the distribution across multiple LD50s, the median of the lowest quartile was computed using only discrete LD50 values (omitting limit test data and range and confidence interval data). A detailed summary of the data compilation is available online on the NICEATM webpage dedicated to the collaborative modeling project (NTP 2020).
[…][…] For categorical designations, limit test and range/confidence interval LD50 data were integrated wherever possible. As such, the number of chemicals with end point values/calls varies across the modeling end points (Table 3) based on whether chemicals had representative LD50 values and/or other data. If a chemical had both, the representative value was used to determine categorical calls rather than limit test data. Some data were useable only for certain end points and categories depending on the thresholds. For example, ranges that spanned multiple hazard categories were considered only for the binary (very toxic/nontoxic) end points and omitted from rendering a determination for hazard category assignment.
[…]The final data set comprising 11,992 chemicals was split into training and evaluation sets […], respectively. This process was performed semirandomly by ordering chemicals based on the five end points (categorical and continuous LD50 values) and partitioning every fourth record into the evaluation set accordingly. This approach was taken to ensure an equivalent distribution of the LD50 values and the different hazard categories between the training and the evaluation sets without supervised sampling of the chemicals based on structures (Figure 1A). The sources of the chemical structures were also kept equivalent between the two sets, with chemical structures obtained from DSSTox, being the highest quality, representing over 75% of each set (Figure 1B).

Turning to `O=P(O)(O)CN(CP(=O)(O)O)CP(=O)(O)O`, the GHS category amounted to 5. As for `O=C1NC(=O)C(=c2[nH]c(=C3C(=O)NC(=O)NC3=O)c3ccccc23)C(=O)N1`, the GHS category worked out at 5. The same measure for `O=Cc1c(O)ccc2ccccc12`: 5. Molecule `CCC=CCCCCCCCC(=O)OC` yielded a GHS category of 5. With `CCOc1nc2cccc(C(=O)OC(C)OC(=O)OC3CCCCC3)c2n1Cc1ccc(-c2ccccc2-c2nnn[nH]2)cc1` (stereo not given), the GHS category is reported as 5. With `CC(COc1ccc(Oc2ccccc2)cc1)Oc1ccccn1` (stereo not given), the GHS category was found to be 5. Turning to `O=C(O)C1C2C=CC(C2)C1C(=O)O` (stereo not given), the GHS category came to 5.

Molecule `CC(C)=CCOC1=C(C(=O)Nc2ccccn2)N(C)S(=O)(=O)c2cc(Cl)sc21` had a GHS category of 2. `CC(C)(C1CCC(O)CC1)C1CCC(O)CC1` (stereo not given) returned a GHS category of 5. Take `CNc1cc(OC)c(C(=O)N[C@H]2CCN(Cc3ccccc3)[C@H]2C)cc1Cl`: the GHS category is recorded as 4. The molecule `CC(=O)C(N=Nc1cc(C(=O)Nc2cc(Cl)ccc2C)ccc1Cl)C(=O)Nc1cc(C)c(NC(=O)C(N=Nc2cc(C(=O)Nc3cc(Cl)ccc3C)ccc2Cl)C(C)=O)cc1C` (stereo not given) gave a GHS category of 5.

As to `CCCCCCCCCCCCCCCC(=O)OCCCCCCCCCCCCCCCC(C)C`, the GHS category amounted to 5. `CC1CC(OC(=O)C(C)Oc2ccc(F)cc2)CC(C)(C)C1` (stereo not given) had a GHS category of 5.

As to `CC1CC(OC(=O)C(C)(C)Oc2ccc(Cl)cc2)CC(C)(C)C1` (stereo not given), the GHS category was determined as 5.

Turning to `Cc1ccc(OP(=O)(Oc2ccccc2)Oc2ccccc2)cc1`, the GHS category is listed as 5. `CCCc1c(Cc2ccc(-c3oc(Br)cc3-c3nn[nH]n3)cc2)c(=O)nc2nc[nH]n12` gave a GHS category of 4.

Consider `CCOC(=O)[C@H](CCc1ccccc1)N[C@H]1CCCN2CCC[C@@H](C(=O)O)N2C1=O`, for which the GHS category came out at 5.

`C=C(C)C1CCC(C)C(O)C1` (stereo not given) came in with a GHS category of 5. `O=C(c1ccc(Cl)cc1)n1ccnc1-c1ccccc1` had a GHS category of 4.

Turning to `Cc1ccc(-c2c(Cl)nc(C#N)n2S(=O)(=O)N(C)C)cc1`, the GHS category was 5. Consider `CC(=O)S[C@@H]1CC2=CC(=O)CC[C@]2(C)[C@H]2CC[C@@]3(C)[C@@H](CC[C@@]34CCC(=O)O4)[C@H]12`, for which the GHS category was found to be 4. In the case of `CCCc1nc(C)c2c(=O)nc(-c3cc(S(=O)(=O)O)ccc3OCC)[nH]n12` it was 5. The same measure for `Oc1c(I)cc(Cl)c2cccnc12`: 5; for `CCCCCCCCCCCCCO[PH](=O)OCCCCCCCCCCCCC`: 5. As for `CCOC(=O)c1cnn(C)c1S(=O)(=O)NC(=O)Nc1nc(OC)cc(OC)n1`, the GHS category came to 5.

In turn, `CCCCC1C(=O)N(c2cccc(O)c2)N(c2cccc(O)c2)C1=O` returned a GHS category of 4.

For `CCCCCCCCC(=O)OCC`, the GHS category was 5. `CO[C@H]1C=CO[C@@]2(C)Oc3c(C)c(O)c4c(c3C2=O)C2=NC3(CCN(CC(C)C)CC3)NC2=C(NC(=O)C(C)=CC=C[C@H](C)[C@H](O)[C@@H](C)[C@@H](O)[C@@H](C)[C@H](OC(C)=O)[C@@H]1C)C4=O` gave a GHS category of 5. On to `O=S(=O)(O)CC(O)CNC1CCCCC1` (stereo not given), for which the GHS category is 5.

Turning to `O=C1C=CC(=O)N1c1ccc(Cc2ccc(N3C(=O)C=CC3=O)cc2)cc1`, the GHS category came to 5. The molecule `CNC(=O)Oc1c(C(C)(C)C)cc(C)cc1C(C)(C)C` returned a GHS category of 5.

The molecule `Cc1cc(-c2ccc(N=C=O)c(C)c2)ccc1N=C=O` yielded a GHS category of 5. The molecule `CCOC(=O)[C@H](CCc1ccccc1)N[C@H]1CS[C@H](c2cccs2)CN(CC(=O)O)C1=O` came in with a GHS category of 5. The same measure for `C=CC(C)CCC=C(C)C` (stereo not given): 5; for `Cc1ccc(S(=O)(=O)NC(=O)NN2CCCCCC2)cc1`: 5.
